According to patent publication US20090286839A1, “PHYTONUTRIENT COMPOSITIONS FROM MUSHROOMS OR FILAMENTOUS FUNGI AND METHODS OF USE” (priority 2006, published 2009):

Columns and labels:
[1] = Peroxynitrite radical averting capacity (NORAC) assay; format: biochemical; conditions: pure ERG
Method: The NORAC assay was modified on a previously reported method. All data was expressed as micromoles of Trolox equivalents (TE) equivalents per gram of dry weight (μmol of TE/g dw). The freeze-dried forms of the mushrooms were used for testing and then the data was converted to a FW basis according to the dry weight of the fresh mushroom samples, which were obtained from one crop. For each analysis, triplicate extractions were performed and used for analysis.
Under physiological conditions, the formation of ONOO^− can easily result due to the cellular production and interaction of nitric oxide and superoxide radicals. Damage to protein, especially aromatic compounds can result from ONOO^−. A limited number of papers have been published regarding the antioxidant capacity against ONOO^−. The NORAC assay is a relatively new assay. SIN-1 is used in the NORAC assay, which when heated decomposes to produce ONOO^−. DHR-123 (non-fluorescent) is used as the probe, which becomes oxidized by the presence of ONOO^− to become rhodamine 123 (fluoresces). If antioxidants present in the sample are able to scavenge ONOO^−, a delay in fluorescence will occur due to the protection of the probe offered by the antioxidant. Generally, compounds that can scavenge ONOO^− will provide high NORAC values. […]

[2] = cited from earlier work
[3] = Hydroxyl radical averting capacity (HORAC) assay; format: biochemical; conditions: pure ERG
Text: The HORAC assay was based on a previously reported method, however caffeic acid (CA) was used as the standard due to CA providing a wider linear range as compared to gallic acid. All data was expressed as micromoles of caffeic acid equivalents (CAE) equivalents per gram of dry weight (μmol CAE/g dw). The freeze-dried forms of the mushrooms were used for testing and the data was reported as dry weight. When reporting amount per serving, the data was converted to a fresh weight basis according to the dry weight of the fresh mushroom samples. For each analysis, triplicate extractions were performed from one crop and used for analysis.
HO. radicals are highly reactive and can be generated via the Fenton reaction. Due to the fact that HO. radicals are short lived with a high rate constant, it is unlikely that antioxidants present at biological concentrations will be able to scavenge the HO radical. However antioxidants, which are able to act as metal chelators, may be able to prevent the formation of the HO. radical, thus acting as a preventative antioxidant. The HORAC assays measures the ability of the antioxidant present to chelate Co(II) prior to the Fenton reaction cocurring. HORAC values ranged between 3.0-13.6 μmole CAE/g dw. There was a significant difference found within the different A. bisporus mushrooms. […]

cortical neurons = assay: 2% Low Serum Assay, neuronal viability by MTT method; format: cell-based, chicken; conditions: 8 days; for viability, mean in % (control is 100%) / viability, mean optical density: addition at 1DIV, n=8
Method: Lohman or Hisex Brown chicken one-day-old fertilized eggs were obtained and stored in a lab under appropriate conditions of 12° C. and 80% humidity. At embryonic day 0 eggs were transferred into a breeding incubatore and stored under permanent turning until embryonic day 9 at 37.8° C. and 55% humidity. For isolation of neurons 4 to 6 chicken embryos were used per experiment. Neurons were plated out and nerve cells maintained in a nutrition medium at 37° C., 97% humidity, and 5% CO2.
Test Item (T.I.) and Reference Item (R.I.) were administered at the start of the experiments for 8 days. Neurons were maintained in the same medium without change or addition of media until the end of the experiments. During the whole culture period of 8 days cells stay in an incubator at 37° C., 97% humidity, and 5% CO2.
From T.I.1, L-Ergothioneine a 128 mM solution was prepared in medium and directly added to the cells at the start of the experiments for a total of 8 days. […] The pellet was discarded and only from the supernatant 1.25 μl up to 160 μl/ml medium was administered. R.I.2. the neurotrophic standard NTS is a ready to use injection solution and was applied in concentrations from 1.25 μl up ro 160 μl/ml medium. The stock-solution for R.I.3, Trolox, was made in a concentration of 2 mM in PBS and the appropriate concentrations added to the cells at day 1.
To the isolated nerve cell T.I.1 was added in a dose range of 0.5, 1, 2, 4, 8, 16, 32, 64 mM. The supernatant of R.I.1 and the ready to use injection solution of R.I.2 were applied in the concentration 1.25, 2.5, 5, 10, 20, 40, 80, 160 μl/ml medium. R.I.3 was tested in the concentrations of 1, 2, 4, 8, 16, 31.25, 62.5, 125 μM. Experiments were performed at two different days, whereby on each day two identical microplates were prepared with two to four wells per T.I. or R.I. (n=8). In this 2% cell stress assay substances were administered at start of the experiment (day 1 in vitro) for the whole experimental period that means for eight days in vitro.
Neuronal viability of cultures was determined with the MTT-assay using a plate-reader (570 nm) as described in SOP MET009. The MTT-assay is a sensitive assay measuring the mitochondrial dehydrogenase activity in viable cells only. It is performed according to the method described by Mosmann, J. Immunol. Meth., 1983, 55-63. This assay is based on the reduction of yellow MTT (3-(4,5-dimethylthiazol-2-yl)-2,5,diphenyl tetrazolium bromide), to dark blue formazan crystals by mitochondrial dehydrogenases (succinate dehydrogenase). Since this reaction is catalyzed in living cells only the assay can be used for the quantification of cell viability.
For the determination of cell viability MTT solution was added to each well in a final concentration of 0.5 mg/ml. After 2 hours the MTT containing medium was aspired. Cells were lysed with 3% SDS, formazan crystals dissolved in isopropanol/HCI. To estimate optical density a plate reader (Anthos HT II) was used at wavelength 570 nm. Neuronal viability is expressed as optical densities (ODs).

For `C[N+](C)(C)[C@@H](Cc1c[nH]c(=S)[nH]1)C(=O)[O-]` [Ergo, L-ergothioneine], the “NORAC value of ERG” value [1] is given as 407 μmole TE/g, the “solubility in nonpolar solvents” value ([2]; nonpolar solvents) is given as “insoluble” and the “water soluble up to” value ([2]; water, room temperature) is given as “up to 0.9 M”. The “HORAC value of ERG” value [3] was 231 μmole CAE/g, the “viability, mean in % (control is 100%)” value (cortical neurons; 0.5 mM) was 98.13% and the “viability, mean optical density” value (cortical neurons; 0.5 mM) was 0.053 OD. For the same compound, the “viability, mean in % (control is 100%)” value (cortical neurons; 1 mM) was 104.42%, the “viability, mean optical density” value (cortical neurons; 1 mM) was 0.057 OD and the “viability, mean in % (control is 100%)” value (cortical neurons; 2 mM) was 105.10%. For the same compound, the “viability, mean optical density” value (cortical neurons; 2 mM) was 0.057 OD, the “viability, mean in % (control is 100%)” value (cortical neurons; 4 mM) was 110.39% and the “viability, mean optical density” value (cortical neurons; 4 mM) was 0.060 OD. The “viability, mean in % (control is 100%)” value (cortical neurons; 8 mM) was 119.84%, the “viability, mean optical density” value (cortical neurons; 8 mM) was 0.065 OD and the “viability, mean in % (control is 100%)” value (cortical neurons; 16 mM) was 189.48%. The “viability, mean optical density” value (cortical neurons; 16 mM) was 0.103 OD, the “viability, mean in % (control is 100%)” value (cortical neurons; 32 mM) was 262.66% and the “viability, mean optical density” value (cortical neurons; 32 mM) was 0.153 OD. The “viability, mean in % (control is 100%)” value (cortical neurons; 64 mM) was 407.45%, the “viability, mean optical density” value (cortical neurons; 64 mM) was 0.221 OD and the neuroprotective concentration range (cortical neurons; 2% low serum, MTT) was ≥ 4 mM. The “maximum neuronal viability (% of untreated control)” value (cortical neurons; 2% low serum, MTT, best concentration tested) was 407%.
